Patent US11569513B1, “Redox flow battery carrier molecule” (Triad National Security, LLC, priority 2020, dated 2023)

Assays:
Assay type in all cases: physicochemical
[1] = Bulk electrolytic cycling (galvanostatic 1 electron charging and discharging) of the −0.93V wave; settings: over the first ten cycles, unoptimized
Protocol: FIG. 3. Galvanostatic 1 electron charging and discharging of a 1 mM solution of Fe(TREN-Pic) in 0.1 M TBAPF6 in MeCN, charging and discharging rates were both 1 mA and potential cutoffs were −1.3 V vs Ag^+ during charging and −0.4 V vs Ag^+ during discharging.
FIG. 5. Metrics obtained from bulk electrolysis displaying high coulombic efficiencies for the charge/discharge cycling.
(§1) In the negative portion of a cyclic voltammogram four features at −0.93, −2.10, −2.28, and −2.55V are observed with current ratios (i[cathodic]/i[anodic]) of 1.01, 0.67, 1.17, and 1.01 respectively. These were obtained with a 1 mM solution of Fe(TREN-Pic) in 0.1M tetrabutylammonium hexafluorophosphate in acetonitrile using a glassy carbon working electrode, platinum wire counter, and a 0.01M silver tetrafluoroborate reference electrode. When the −0.93V wave is subjected to bulk electrolytic cycling over 25 repetitions, a high Coulombic efficiency is calculated (˜95%) with an unoptimized slow decay in utilization (electrons stored per redox carrier molecule) of 4% over the first ten cycles. […] This represents only the third known complex to display this behavior (JACS, 2016, 15378 and Journal of Power Sources, 2016, 681).

[2] = Cyclic voltammogram, negative region, 1 mM solution in 0.1M TBAPF6 in acetonitrile
Protocol: FIG. 2. Voltammogram of the […]/negative region of a 1 mM solution of Fe(TREN-Pic) in 0.1 M tetrabutylammonium hexafluorophosphate (TBAPF6) in acetonitrile (MeCN), obtained using a glassy carbon working electrode, a platinum wire counter electrode, and a 0.010 M AgBF4 reference electrode.
as §1

[3] = Bulk cycling with broadened voltage window (galvanostatic 2 electron charging and discharging); settings: voltage window broadened to include the next wave; over 25 cycles
Protocol: FIG. 6. Galvanostatic 2 electron charging and discharging of a 1 mM solution of Fe(TREN-Pic) in 0.1 M TBAPF6 in MeCN, charging and discharging rates were both 1 mA and potential cutoffs were −2.14 V vs Ag^+ during charging and −0.4 V vs Ag^+ during discharging.
FIG. 8. Metrics obtained from bulk electrolysis displaying high coulombic efficiencies for the charge/discharge cycling and the complexes capability to reversibly store multiple electron equivalents.
as §1

## Fe III tris(2-aminoethyl)amine (TREN) picolinic (PIC) [Fe(TREN-Pic)]
[1]
  decay in utilization (electrons stored per redox carrier molecule): 4%
[2]; 1 mM in 0.1M tetrabutylammonium hexafluorophosphate in acetonitrile, glassy carbon working electrode, platinum wire counter, 0.01M silver tetrafluoroborate reference, first feature
  potential of first feature in negative portion of cyclic voltammogram: −0.93 V
[2]; feature at −0.93 V
  current ratio (i[cathodic]/i[anodic]): 1.01
[2]; feature at −2.10 V
  current ratio (i[cathodic]/i[anodic]): 0.67
[2]; feature at −2.28 V
  current ratio (i[cathodic]/i[anodic]): 1.17
[2]; feature at −2.55 V
  current ratio (i[cathodic]/i[anodic]): 1.01
[2]; same conditions, fourth feature
  potential of fourth feature in negative portion of cyclic voltammogram: −2.55 V
[2]; same conditions, second feature
  potential of second feature in negative portion of cyclic voltammogram: −2.10 V
[2]; same conditions, third feature
  potential of third feature in negative portion of cyclic voltammogram: −2.28 V
[3]
  decay over cycling: significant decay
